Values after ≈ are worked out from the molar mass of the structure shown. Where two headings read alike, the source gives them in different places.
Assays:
RnpA = molecular target: T1, RnpA (Staphylococcus aureus, UniProt P0A0H5); experiment: RnpA mRNA degradation activity assay; assay type: biochemical
T1 sequence (P0A0H5 1-117): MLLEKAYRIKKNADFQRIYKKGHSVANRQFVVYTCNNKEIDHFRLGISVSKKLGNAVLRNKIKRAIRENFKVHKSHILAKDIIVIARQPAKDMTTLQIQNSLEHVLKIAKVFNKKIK
Description: The RNase P inhibitors described herein were tested for activity toward RnpA mRNA degradation activity. Either 1 μg of total S. aureus RNA or 1 pmol of in vitro synthesized spa mRNA was incubated with 20 pmol RnpA at 37° C. for 15 to 30 min in a reaction buffer (50 mM Tris-HCl pH 8.0, 2 mM NaCl, 2 mM MgCl2) in the absence or presence of the indicated compound. Reactions were stopped by adding an equal volume of 2×RNA loading dye (95% formamide, 0.025% SDS, 0.025% bromophenol blue, 0.025% xylene cyanol FF, 0.5 mM EDTA), run on a denaturing 1.0% agarose-0.66 M formaldehyde gel and stained with ethidium bromide. RNA substrates and corresponding degradation products were visualized using a FluorChem 5500 system (Alpha Innotech; San Leandro, Calif.). The inhibitory effects of the test compounds were measured using Image J densitometry software (National Institutes of Health; Bethesda, Md.) to quantify the signal intensity of the RNA band(s) in the negative control (RNA alone), positive control (RnpA+RNA+DMSO), and experimental samples (RnpA+RNA+test compound). The percent enzyme inhibition of test compounds was calculated using the following equation: Percent inhibition=[(experimental signal-positive control)/(negative control signal-positive control signal)]*100.

[1] = molecular target: T2, S. aureus RNase P (RnpA+rnpB) (Staphylococcus aureus, UniProt P0A0H5); experiment: RNase P activity assay (precursor tRNA processing); assay type: biochemical; conditions: ptRNATyr processing, gel densitometry; read-out: RNase P IC50
T2 sequence (P0A0H5 1-117): T1 sequence (P0A0H5 1-117)
Description: The RNase P inhibitors described herein were tested for activity toward RNase P. S. aureus RNase P activity assays were performed in low salt buffer (50 mM Tris-HCl pH 8.0, 5 mM MgCl2) or in high salt buffer (50 mM Tris-HCl pH 8.0, 100 mM MgCl2, 800 mM NH4Cl). For all reactions, ptRNATyr, tRNATyr, or rnpB RNA species were first denatured by heating to 95° C. for 3 minutes, and then slowly cooling the mixtures to room temperature. RNase P was reconstituted by mixing an equal molar ratio of RnpB and RnpA for 15 min at 37° C. Precursor tRNA processing reactions (20 μL) were performed by mixing 1.25 pmol RNase P (RnpA+rnpB), RnpA, or rnpB with an equal volume of 2× low salt buffer or 2× high salt buffer and 10 pmol ptRNATyr. Mixtures were incubated for 15 min at 37° C. Reactions were stopped by adding 20 μL 2×RNA loading dye (95% formamide, 0.025% SDS, 0.025% bromophenol blue, 0.025% xylene cyanol FF, 0.5 mM EDTA), and 30 μL of each sample was electrophoresed in a 7 M urea/8% polyacrylamide gel and was then stained with ethidium bromide (0.5 μg/ml). Where indicated, reactions were repeated in the presence of the indicated amount of putative RnpA inhibitors or dimethyl sulfoxide (DMSO). A FluorChem 5500 imaging system was used to visualize the RNA, and the relative abundance of the mature tRNATyr band in the positive control (RNase P+DMSO) or in samples containing test compounds was measured using Image J densitometry software (NIH). The percent RNase P activity was then calculated using the following calculation: (test compound tRNATyr signal/positive control tRNATyr signal)*100.

[2] = tested on: Staphylococcus aureus strain UAMS-1; experiment: Antimicrobial susceptibility testing (MIC, broth microdilution); assay type: cell-based; conditions: Staphylococcus aureus, UAMS1, 18 h, S. aureus UAMS-1, Mueller Hinton broth, 37° C., read-out: MIC
Description: The RNase P inhibitors described herein were tested for antimicrobial activity toward Staphylococcus aureus strain UAMS-1. Individual wells of a 96-well microtiter plate were inoculated with ˜1×10^5 colony-forming units (CFU) of the indicated organism, containing two-fold increasing concentrations (from 0 to 256 μg mL^−1) of the indicated antibiotic or putative RnpA inhibitor, and incubated at 37° C. for 18 hours in Mueller Hinton broth. The MIC was defined as the lowest concentration of antibiotic in which there was no visible bacterial growth in the wells. Minimum bactericidal concentration testing was performed by enumerating the bacterial cells in each of the wells containing treatments at and above the MIC.

S. aureus strain UAMS-1 = experiment: Fractional Inhibitory Concentration testing with mupirocin; assay type: cell-based; conditions: combined with mupirocin, S. aureus UAMS-1, Mueller Hinton broth, 18 hours; synergistic FIC≤0.5
Description: The RNase P inhibitors described herein were tested for Fractional Inhibitory Concentration (FIC) in the presence of mupirocin. FIC testing was performed to determine the combined effects of mupirocin and the RnpA inhibitors as described herein. Individual wells of a 96-well microtiter plate were inoculated with 1×10^5 CFU of S. aureus strain UAMS-1 in a Mueller Hinton broth. Each row of the plate contained increasing concentrations of RNPA1000 or RNPA2000 (two-fold increments; 0, 0.004, 0.008, 0.016, 0.03, 0.06, 0.125, 0.25, 0.5, 1, 2, or 4×MIC), whereas each column contained increasing concentrations of the indicated antibiotic (two-fold increments; 0, 0.06, 0.125, 0.25, 0.5, 1, 2, or 4×MIC). Plates were incubated for 18 hours at 37° C., and growth was detected by the unaided eye. The FIC was determined using the following formula: (MIC of Drug A in Combination/MIC of Drug A Alone)+(MIC of Drug B in Combination/MIC of Drug B Alone)=FIC. A synergistic interaction was defined as an FIC value≤0.5, no interaction as an FIC of 0.5-4, or an antagonistic interaction FIC>4.

[3] = RnpA mRNA degradation, gel densitometry, read-out: RnpA IC50

Structure (SMILES)	IC50 [1] [µM]	MIC [2] [µg/mL]	IC50 (RnpA; [3]) [µM]	IC50 (RnpA) [µM]	FIC with Mupirocin (S. aureus strain UAMS-1)
CC(C)c1ccc(OCC(=O)NNC(=S)NC(=O)c2cccnc2)cc1 [MC-190049]	160	64 (≈ 172 µM)	–	> 500	1
CC(C)c1ccc(OCC(=O)NNC(=S)NC(=O)c2cc3ccccc3[nH]2)cc1 [MC-190054]	< 0.5	16 (≈ 39 µM)	50	–	0.49
Cc1ccc(C(C)C)c(OCC(=O)NNC(=S)NC(=O)c2ccccc2OCCOc2ccccc2)c1 [ST5528960]	> 500	> 128	40	–	0.56
CC(C)c1ccc(OCC(=O)NNC(=S)NC(=O)c2ccsc2)cc1 [MC-190030]	395	64 (≈ 170 µM)	–	> 500	0.375
CCCOc1ccccc1C(=O)NNC(=S)NC(=O)c1ccco1 [ST5528488]	95	4 (≈ 11.5 µM)	430	–	0.5
CC(C)c1ccc(OCC(=O)NNC(=S)NC(=O)c2c[nH]c3ccccc23)cc1 [MC-190055]	90	32 (≈ 78 µM)	40	–	0.56
CC(C)c1ccc(OCC(=O)NNC(=S)NC(=O)c2cc3ccc(Cl)cc3[nH]2)cc1 [MC-190066]	< 50	16 (≈ 36 µM)	250	–	0.75
Cc1ccccc1OCC(=O)NNC(=S)NC(=O)c1ccco1 [ST5522690]	> 500	16 (≈ 48 µM)	> 500	–	1
COc1ccc2[nH]c(C(=O)NC(=S)NNC(=O)COc3ccc(C(C)C)cc3)cc2c1 [MC-190060]	< 50	32 (≈ 72.6 µM)	50	–	0.49
Cc1ccoc1C(=O)NNC(=O)COc1ccc(C(C)C)cc1 [MC-190040]	230	> 256	480	–	0.625
CC(C)c1ccc(OCC(=O)NNC(=S)NC(=O)c2nc3ccccc3[nH]2)cc1 [MC-190052]	90	128 (≈ 311 µM)	150	–	0.56
CC(C)c1ccc(OCC(=O)NNC(=S)NC(=O)c2cc3ccccc3s2)cc1 [MC-220001]	100	> 256	50	–	0.56
CC(C)c1ccc(OCC(=O)NNC(=S)NC(=O)c2cc3ccccc3o2)cc1 [MC-190031]	1	32 (≈ 77.8 µM)	60	–	0.25
CC(C)c1ccccc1OCC(=O)NNC(=S)NC(=O)/C=C/c1cccs1 [ST5523210]	110	32 (≈ 79.3 µM)	45	–	0.75
Cc1cc(OCC(=O)NNC(=S)NC(=O)c2ccc(Br)o2)ccc1Cl [ST5522821]	220	16 (≈ 35.8 µM)	35	–	0.75
Cc1ccc(C(=O)NC(=S)NNC(=O)COc2ccc(C(C)C)cc2)o1 [MC-190044]	105	32 (≈ 85.2 µM)	30	–	0.49
CC(C)c1ccc(OCC(=O)NNC(=S)NC(=O)c2cc3cc(Cl)ccc3[nH]2)cc1 [MC-190064]	100	256 (≈ 575 µM)	–	> 500	0.53
CC(C)c1ccc(OCC(=O)NNC(=S)NC(=O)c2ccccn2)cc1 [MC-190053]	1	32 (≈ 85.9 µM)	100	–	0.49
Cc1occc1C(=O)NNC(=S)NC(=O)COc1ccc(Cl)cc1Cl [ST5523108]	75	4 (≈ 9.94 µM)	> 500	–	0.49

Second part, led by results:

IC50 [1] [µM]	MIC [2] [µg/mL]	IC50 (RnpA; [3]) [µM]	Structure (SMILES)	IC50 (RnpA) [µM]	FIC with Mupirocin (S. aureus strain UAMS-1)
370	32 (≈ 97.2 µM)	> 500	O=C(NC(=S)NNC(=O)C1C[C@H]1c1ccccc1)c1ccco1 (stereo partly shown) [MC-190068]	–	0.5
380	128 (≈ 339 µM)	> 500	CC(C)c1ccc(OCC(=O)NNC(=S)NC(=O)c2cccs2)cc1 [MC-190029]	–	0.5
380	> 128	> 500	CC(C)c1ccccc1OCC(=O)NNC(=S)NC(=O)c1ccccc1OCCOc1ccccc1 [ST5528880]	–	0.56
26	64 (≈ 146 µM)	30	CC(C)c1ccc(OCC(=O)NNC(=S)NC(=O)/C=C/c2cc3ccccc3o2)cc1 [MC-190047]	–	0.625
> 500	8 to 16 (≈ 24 to 48 µM)	> 500	CCOc1ccccc1C(=O)NNC(=S)NC(=O)c1ccco1 [MC-190067]	–	0.625
65	> 128	> 500	CCCc1ccc(OCC(=O)NNC(=S)NC(=O)c2ccco2)cc1 [ST5682783]	–	0.31
75	8 (≈ 18.8 µM)	380	Cc1ccc(OCC(=O)NNC(=S)NC(=O)c2ccc(Br)o2)c(C)c1 [ST5523326]	–	0.375
> 500	64 (≈ 208 µM)	> 500	O=C(NNC(=S)NC(=O)c1ccco1)c1ccc(F)cc1 [ST5703018]	–	0.625
100	128 (≈ 295 µM)	> 500	Cc1cccc(C)c1OCC(=O)NNC(=S)NC(=O)c1ccc(-c2ccccc2)cc1 [ST5523335]	–	0.375
